The target in one assay is T1, human COX-2 (Homo sapiens, UniProt P35354).
T1 construct: expressed in transfected cells; host or cells: COS cells (stably transfected)
T1 sequence (P35354 18-604): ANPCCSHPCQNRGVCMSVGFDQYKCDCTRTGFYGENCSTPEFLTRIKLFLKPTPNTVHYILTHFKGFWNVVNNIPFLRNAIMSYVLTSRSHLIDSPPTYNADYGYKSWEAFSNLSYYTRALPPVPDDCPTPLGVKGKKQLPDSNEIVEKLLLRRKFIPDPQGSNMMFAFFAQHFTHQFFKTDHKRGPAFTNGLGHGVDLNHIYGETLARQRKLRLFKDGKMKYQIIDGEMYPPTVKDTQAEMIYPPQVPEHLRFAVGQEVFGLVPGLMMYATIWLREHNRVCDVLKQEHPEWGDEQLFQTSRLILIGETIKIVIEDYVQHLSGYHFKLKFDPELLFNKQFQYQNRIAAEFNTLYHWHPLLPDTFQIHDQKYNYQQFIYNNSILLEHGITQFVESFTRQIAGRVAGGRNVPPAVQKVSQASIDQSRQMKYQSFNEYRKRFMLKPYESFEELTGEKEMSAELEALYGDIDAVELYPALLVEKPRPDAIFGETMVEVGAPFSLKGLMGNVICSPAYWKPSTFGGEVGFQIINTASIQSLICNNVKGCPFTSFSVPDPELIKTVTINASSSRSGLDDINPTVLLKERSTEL
Put plainly: Inhibition of PGE2 release in COS cells stably transfected with human COX-2. As to conditions: COS cells transfected with human COX-2; 1 hour preincubation, 30 μM arachidonic acid for 15 minutes, PGE2 by enzyme immunoassay. It counts as cell-based. The method, then:
(§1) Inhibitory activity against human COX-1 and COX-2 was assessed in COS cells which had been stably transfected with cDNA for human COX-1 and human COX-2. 24 Hours prior to experiment, COS cells were transferred from the 175 cm^2 flasks in which they were grown, onto 24-well cell culture plates using the following procedure. The incubation medium (Dulbecco's modified eagles medium (DMEM) supplemented with heat-inactivated foetal calf serum (10% v/v), penicillin (100 IU/ml), streptomycin (100μg/ml) and geneticin (600 μg/ml)) was removed from a flask of confluent cells (1 flask at confluency contains approximately 1×10^7 cells). 10 ml of phosphate buffered saline (PBS) was added to the flask to wash the cells. Having discarded the PBS, cells were then rinsed in 10 ml trypsin for 20 seconds, after which the trypsin was removed and the flask placed in an incubator (37°) for 1-2 minutes until cells became detached from the flask. The flask was then removed from the incubator and cells resuspended in 10 ml of fresh incubation medium. The contents of the flask was transferred to a 250 ml sterile container and the volume of incubation medium subsequently made up to 100 ml. 1 ml cell suspension was pipetted into each well of 4×24-well cell culture plates. The plates were then placed in an incubator (37° C., 95% air/5% CO2) overnight. If more than 1 flask of cells were required, the cells from the individual flasks were combined before being dispensed into the 24-well plates.
(§2) Following the overnight incubation, the incubation medium was completely removed from the 24-well cell culture plates and replaced with 250 μl fresh DMEM (37° C.). The test compounds were made up to 250× the required test concentration in DMSO and were added to the wells in a volume of 1 μl. Plates were then mixed gently by swirling and then placed in an incubator for 1 hour (37° C., 95% air/5% CO2). Following the incubation period, 10 μl of arachidonic acid (750 μM) was added to each well to give a final arachidonic acid concentration of 30 μM. Plates were then incubated for a further 15 minutes, after which the incubation medium was removed from each well of the plates and stored at −20° C., prior to determination of prostaglandin E2 (PGE2) levels using enzyme immunoassay. The inhibitory potency of the test compound was expressed as an IC50 value, which is defined as the concentration of the compound required to inhibit the PGE2 release from the cells by 50%. The selectivity ratio of inhibition of COX-1 versus COX-2 was calculated by comparing respective IC50 values. The following IC50 values for inhibition of COX-2 and COX-1 were obtained for compounds of the invention: […]

The target in another assay is T2, human COX-1 (Homo sapiens, UniProt P23219).
T2 construct: expressed in transfected cells; host or cells: COS cells (stably transfected)
The assay is described as follows: Inhibition of PGE2 release in COS cells stably transfected with human COX-1. Format: cell-based. Conditions: COS cells transfected with human COX-1; 1 hour preincubation, 30 μM arachidonic acid for 15 minutes, PGE2 by enzyme immunoassay. The method, then:
as §1, §2

Some results are limits rather than exact numbers.

The term IC50 denotes the concentration at which inhibition is half-maximal. A higher IC50 goes with a need for much substance.

T2 sequence (P23219 24-599): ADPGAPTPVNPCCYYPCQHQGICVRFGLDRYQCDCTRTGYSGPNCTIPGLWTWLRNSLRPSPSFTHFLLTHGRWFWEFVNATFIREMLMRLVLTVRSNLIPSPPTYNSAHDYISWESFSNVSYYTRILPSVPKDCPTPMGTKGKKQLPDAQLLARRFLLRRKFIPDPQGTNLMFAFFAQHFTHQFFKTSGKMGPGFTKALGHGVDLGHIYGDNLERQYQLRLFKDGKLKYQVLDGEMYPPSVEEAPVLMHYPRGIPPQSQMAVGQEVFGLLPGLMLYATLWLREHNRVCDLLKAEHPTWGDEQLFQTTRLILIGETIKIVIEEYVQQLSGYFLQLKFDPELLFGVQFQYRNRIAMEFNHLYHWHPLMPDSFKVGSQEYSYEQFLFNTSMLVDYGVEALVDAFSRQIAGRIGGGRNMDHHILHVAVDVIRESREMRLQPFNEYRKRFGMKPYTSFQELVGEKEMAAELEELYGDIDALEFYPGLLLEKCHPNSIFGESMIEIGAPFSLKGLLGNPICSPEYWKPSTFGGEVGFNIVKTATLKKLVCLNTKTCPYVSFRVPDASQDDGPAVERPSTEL

Consider `NS(=O)(=O)c1ccc(-c2c(-c3ccccc3)nn3cc(Cl)ccc23)cc1` [8(iii), 4-[6-Chloro-2-phenyl-pyrazolo[1,5-a]pyridin-3-yl]benzenesulfonamide], for which the IC50 against human COX-2 is 5 nM; on human COX-1, over 100000 nM.

In the case of `CS(=O)(=O)c1ccc(-c2c(-c3ccc(F)cc3)nn3cc(C#N)ccc23)cc1` [Example 2, 2-(4-Fluorophenyl)-3-[4-(methylsulfonyl)phenyl]pyrazolo[1,5-a]pyridine-6-carbonitrile], the values for the concentration for half-maximal inhibition (IC50) on human COX-2 and on human COX-1 were 12 nM and over 100000 nM, respectively.

`CS(=O)(=O)c1ccc(-c2c(-c3ccc(F)cc3)nn3cc(Br)ccc23)cc1` [4(iii), 6-Bromo-2-(4-fluorophenyl)-3-[4-(methylsulfonyl)phenyl]pyrazolo[1,5-a]pyridine]: the IC50 was 5 nM at human COX-2 and over 100000 nM at human COX-1.

Regarding `CCOc1ccc(-c2nn3cc(Cl)ccc3c2-c2ccc(S(N)(=O)=O)cc2)cc1` [Example 6, 4-[6-Chloro-2-(4-ethoxyphenyl)pyrazolo[1,5-a]pyridin-3-yl]benzenesulfonamide], the IC50 on human COX-2 was 12 nM; on human COX-1, over 100000 nM.

For the molecule `NS(=O)(=O)c1ccc(-c2c(-c3cccc(F)c3)nn3cc(Cl)ccc23)cc1` [Example 7, 4-[6-Chloro-2-(3-fluorophenyl)pyrazolo[1,5-a]pyridin-3-yl]benzenesulfonamide], the IC50 at human COX-2 is 1 nM; against human COX-1, 6760 nM.

On to `NS(=O)(=O)c1ccc(-c2c(-c3ccc(F)cc3)nn3cc(Br)ccc23)cc1` [Example 3(vi), 4-[6-Bromo-2-(4-fluorophenyl)pyrazolo[1,5-a]pyridin-3-yl]benzenesulfonamide], for which the half-maximal inhibitory concentration (IC50) was 1 nM against human COX-2 and 6760 nM against human COX-1.

Regarding `N#Cc1ccc2c(-c3ccc(S(N)(=O)=O)cc3)c(-c3ccc(F)cc3)nn2c1` [Example 1(iv), 4-[6-Cyano-2-(4-fluorophenyl)pyrazolo[1,5-a]pyridin-3-yl]benzenesulfonamide], the IC50 turned out to be 21 nM at human COX-2 and 20900 nM against human COX-1.

Consider `NS(=O)(=O)c1ccc(-c2c(-c3ccc(F)cc3)nn3cc(Cl)ccc23)cc1` [Example 5(vi), 4-[6-Chloro-2-(4-fluorophenyl)pyrazolo[1,5-a]pyridin-3-yl]benzenesulfonamide], for which the results for the IC50 at human COX-2 and on human COX-1 were 21 nM and 20900 nM, respectively.
